Source: patent US20240147987A1, “METHOD FOR IMPROVING THE EFFECT OF THE OOCYTE CRYOPRESERVATION BY REDUCING THE MITOCHONDRIAL TEMPERATURE” (China Agricultural University, priority 2022, published 2024)
Several values for one entry are separate records, joined by “and”; a condition that tells them apart may be missing. Equal values may be shown once.

Assays:
porcine oocytes [1] = experiment: Oocyte mitochondrial temperature detection (Mito Thermo Yellow probe fluorescence); type: cell-based
Protocol: (§1) 100 nM Mito Thermo Yellow dye was added in TL-HEPES-0.3% BSA solution and preheated for 15 min at 37° C. in an incubator containing 5% CO2, the oocytes were moved into the preheated dye solution in the incubator for 15 min and then washed three times with TL-HEPES-0.3% BSA for 10 min each time, the fluorescence intensity was detected by laser confocal microscopy, and the changes of mitochondrial temperature were analyzed.
Metformin can effectively reduce mitochondrial heat production.

porcine oocytes [2] = experiment: Parthenogenetic activation of oocytes (cleavage and blastocyst development)
Protocol: After the first polar body was extruded, mature oocytes with uniform cytoplasm were selected for parthenogenetic activation. The oocytes were washed three times with a pre-heated electro-activation solution, and then the oocytes were placed between electrodes filled with the activation solution, the electro-activation solution was 0.3 M mannitol, 0.05 mM CaCl2, 0.1 mM MgCl2, and 0.4% (m/v) bovine serum albumin dissolved in water. An electric fusion meter (Fujihira Industry Co. Ltd, Tokyo, Japan) was used for electrical activation, the electric field intensity was 65 V/mm, the DC pulse duration was 80 μs, and the number of pulses was 1. The activated oocytes were cultured in PZM-3 containing 5 μg/mL cytochalasin B and 10 μg/mL cycloheximide at 38.5° C., 5% CO2 for 4 h. Then the oocytes were washed and cultured in PZM-3 (day 0). The number of cleavage embryos was counted on day 2 and blastocyst formation was recorded on day 7.

[3] = system: vitrified porcine oocytes; experiment: Survival rate detection of vitrified oocytes after thawing (FDA staining); type: cell-based; settings: freezing group 71.85%
Protocol: The room temperature was adjusted to 25±1° C. so that the test apparatus and reagents were fully balanced, the experiment was carried out on a 37° C. thermostat, the oocytes were transferred into 20% EG solution for 3 min, and then transferred into the vitrification solution EDFS40 for 30-40 s, the oocytes were then placed on the cryocarrier Cryotop. […] When thawing the oocytes, the Cryotop was taken out from liquid nitrogen, and the oocytes were immediately immersed in PBS containing 1M sucrose (containing 20% FBS) on a thermostatic table (37° C.) for 1 min, and then transferred to PBS containing 0.5M and 0.25M sucrose (containing 20% FBS) for 3 min, and then placed in PBS containing 20% FBS for recovery for 5 min, and then washed three times with mature medium and placed in mature medium for recovery for 2 hours. • (1) Survival Rate Detection of Oocytes after Thawing
The survival rate of oocytes was detected by FDA (fluorescein diacetate) staining. The collected oocytes were incubated in TL-HEPES-0.3% BSA solution containing 2.5 μg/mL FDA for 1 min and then washed three times with TL-HEPES-0.3% BSA solution, the oocytes were placed on a petri dish and observed using a fluorescence microscope, the oocytes with green fluorescence were considered to be alive.

vitrified oocytes [4] = experiment: Mitochondrial temperature of vitrified oocytes after thawing (MTY probe); type: cell-based, porcine; settings: metformin pretreatment before freezing; P<0.01
Protocol: as §1
The room temperature was adjusted to 25±1° C. so that the test apparatus and reagents were fully balanced, the experiment was carried out on a 37° C. thermostat, the oocytes were transferred into 20% EG solution for 3 min, and then transferred into the vitrification solution EDFS40 for 30-40 s, the oocytes were then placed on the cryocarrier Cryotop. […]
The effect of metformin pretreatment on the mitochondrial temperature of vitrified oocytes was further analyzed.

porcine oocytes [5] = experiment: Oocyte membrane fluidity detection by FRAP; type: cell-based; settings: metformin pretreatment; P<0.05
Protocol: The membrane fluidity of oocytes was detected by fluorescence recovery after photobleaching (FRAP). The oocytes were first placed in TL-HEPES-0.3% BSA solution containing cell membrane fluorescent probe Dil, and incubated at 37° C. in the incubator containing 5% CO2 for 10 min. After incubation, the oocytes were washed three times within TL-HEPES-0.3% BSA solution, and then the oocytes were placed in a confocal dish. FRAP experiments were performed on a confocal microscope. Firstly, a bleaching area was selected, and three fluorescence images were collected before bleaching, with an interval of 5 s for each image. The bleaching fluorescence intensity was 100%, and the bleaching time was 7.93 s. Recovery time was 3 min after bleaching, and fluorescence images were collected at 5 s intervals. The fluorescence intensity of the bleaching area was statistically analyzed and the data were normalized.

vitrified oocytes [6] = experiment: Ultrastructural observation of lipid droplets in oocytes (TEM); type: cell-based, porcine; settings: metformin pretreatment
Protocol: The oocytes were washed with DPBS and fixed overnight at 4° C. in a 0.1M dimethylarsenate buffer containing 2.5% (m/v) glutaraldehyde. After washing with DPBS, oocytes were fixed with 1% osmic acid, then washed with DPBS, and dehydrated in a gradient of 30%, 50%, 70%, 80%, 90%, and 100% acetone. The epoxy resin SPURR was used for embedding-polymerization, and the LKB-V slicing machine (ultra-thin slice thickness 50 nm (diamond knife)) was used for slicing, and then the double staining of uranium acetate-lead citrate was carried out on the copper mesh of the electron microscope, the copper mesh containing the sample was dried in a glass dish overnight, and the image was collected using a transmission electron microscope (TEM) at 80 kv (HITACHI, New Bio-TEM H-7500, Japan).

[7] = rotenone-treated group vs control group, after parthenogenetic activation, P<0.01
[8] = 1 μM UK5099 vs control group, after parthenogenetic activation
[9] = 2 μM UK5099 vs control group, after parthenogenetic activation
[10] = UK5099 0.5 μM, 1 μM, 2 μM, 4 μM

In the case of `C=C(C)[C@H]1Cc2c(ccc3c2O[C@@H]2COc4cc(OC)c(OC)cc4[C@@H]2C3=O)O1` [rotenone], the mitochondrial temperature (porcine oocytes [1]; 1 μM rotenone treatment for 1 h, P<0.01) is reported as “significantly reduced”, the blastocyst development rate (porcine oocytes [2]; [7]) is reported as “significantly decreased” and the cleavage rate (porcine oocytes [2]; [7]) is reported as “significantly decreased”. The cytotoxicity (porcine oocytes [2]; summary statement on rotenone) was “greater cytotoxicity”.

In the case of `N#C/C(=C\c1cn(-c2ccccc2)c2ccccc12)C(=O)O` [UK5099], the mitochondrial temperature (porcine oocytes [1]; 1 μM UK5099 treatment for 1 h, P<0.05) is reported as “significantly reduced”, the mitochondrial temperature (porcine oocytes [1]; 2 μM UK5099 treatment for 1 h, P<0.01) is reported as “significantly reduced” and the “Survival rate (%)” value ([3]; UK5099 pretreatment before vitrification, P>0.05) is reported as 67.50% and 67.50^b(135/200) %. The blastocyst rate (porcine oocytes [2]; [8]) was “not significantly different”, the cleavage rate (porcine oocytes [2]; [8]) was “not significantly different” and the blastocyst rate (porcine oocytes [2]; [9]) was “not significantly different”. For the same compound, the cleavage rate (porcine oocytes [2]; [9]) was “not significantly different”, the “blastocyst rate, trend with concentration” value (porcine oocytes [2]; [10]) was “decreased with the increase of UK5099 concentration” and the “cleavage rate, trend with concentration” value (porcine oocytes [2]; [10]) was “decreased with the increase of UK5099 concentration”.

With `CC[C@H]1/C=C/C=C/C[C@@H](C)[C@H](O)[C@@](C)(O)C(=O)[C@@H](C)[C@H](O)[C@@H](C)C(=O)[C@@H](C)[C@H](O)[C@@H](C)/C=C/C(=O)O[C@@H]2[C@H](C)[C@H](CC1)O[C@]1(CC[C@H](C)[C@H](C[C@@H](C)O)O1)[C@H]2C` [oligomycin] the mitochondrial temperature (porcine oocytes [1]; 0.5 μM oligomycin treatment for 1 h, P<0.01) was “significantly reduce”, the mitochondrial temperature (porcine oocytes [1]; 1.5 μM oligomycin treatment for 1 h, P<0.01) was “significantly reduce” and the mitochondrial temperature (porcine oocytes [1]; 2.5 μM oligomycin treatment for 1 h, P<0.01) was “significantly reduce”. The “Survival rate (%)” value ([3]; oligomycin pretreatment before vitrification, P<0.05) was 29.79%, the “Survival rate (%)” value ([3]; oligomycin pretreatment before vitrification, P<0.05, listed as Oligomycin) was 29.79^c(56/188) % and the blastocyst development rate (porcine oocytes [2]; 0.5 μM oligomycin vs control group) was “significantly lower”. The blastocyst development (porcine oocytes [2]; 1.5 μM oligomycin vs control group, P<0.01) was “significantly lower”, the blastocyst development (porcine oocytes [2]; 2.5 μM oligomycin vs control group, P<0.01) was “significantly lower” and the cleavage rate (porcine oocytes [2]; different concentrations of oligomycin vs control group, parthenogenetic activation, P<0.01) was “significantly lower”.

With `CN(C)C(=N)N=C(N)N` [metformin] the “mitochondrial temperature of vitrified oocytes after thawing” value (vitrified oocytes [4]) was “significantly higher than that of the conventional freezing group”, the mitochondrial temperature (porcine oocytes [1]; 400 μM metformin treatment for 1 h, P<0.05) was “significantly reduce mitochondrial temperature” and the “Survival rate (%)” value ([3]; pretreated with 400 μM metformin for 1 h before vitrification, P<0.05) was 81.36%. For the same compound, the “Survival rate (%)” value ([3]; pretreated with 400 μM metformin for 1 h before vitrification, P<0.05, listed as Metformin) was 81.36^c(179/330) %, the cleavage rate (porcine oocytes [2]; metformin pretreatment group vs control group, after parthenogenetic activation, day 2) was “no significant difference” and the blastocyst development rate (porcine oocytes [2]; metformin pretreatment group vs control group, after parthenogenetic activation, day 7) was “no significant difference”. For the same compound, the plasma membrane fluidity (porcine oocytes [5]) was “significantly decreased” and the “size of lipid droplets in oocytes” value (vitrified oocytes [6]) was “close to that of the fresh group”.
